“And” between values parts separate entries of the source, which are not always exact repeats. Equal entries are not always repeated.
Legend:
Streptomyces [1] = experiment: Kcat against Streptomyces R61 DD-peptidase
Streptomyces [2] = experiment: Km against Streptomyces R61 DD-peptidase
[3] = biological target: Beta-lactamase (Enterobacter cloacae) (UniProt P05364); experiment: Kcat against P99 beta-lactamase
[4] = Ratio for Kcat to Km against Streptomyces R61 DD-peptidase; parameters: unit not given here
[5] = Ratio for Kcat to Km was determined; parameters: unit not given here

Beta-lactamase (Enterobacter cloacae), sequence (P05364 21-381 limits assumed): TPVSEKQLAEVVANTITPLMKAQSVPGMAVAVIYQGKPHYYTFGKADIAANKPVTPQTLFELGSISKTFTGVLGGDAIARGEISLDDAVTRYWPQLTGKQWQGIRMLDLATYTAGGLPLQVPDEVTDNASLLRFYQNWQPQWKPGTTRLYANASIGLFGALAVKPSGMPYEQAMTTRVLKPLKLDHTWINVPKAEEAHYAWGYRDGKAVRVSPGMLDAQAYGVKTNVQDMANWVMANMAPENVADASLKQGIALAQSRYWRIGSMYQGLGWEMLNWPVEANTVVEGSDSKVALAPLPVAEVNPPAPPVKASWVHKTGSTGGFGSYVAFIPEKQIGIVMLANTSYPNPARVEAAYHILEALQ

`CC(=O)NCCCC[C@H](NC(C)=O)C(=O)NCC(=O)S[C@H](C)C(=O)O` showed a k cat (Streptomyces [1]) of 11.9 s⁻¹, a Km (Streptomyces [2]) of 2 mM and a k cat [3] of 5.1 s⁻¹. The Ratio [4] was 5850 and the Ratio [5] was 763.
With `CC(=O)NCCCC[C@H](NC(C)=O)C(=O)NCC(=O)O[C@H](C)C(=O)O` the k cat (Streptomyces [1]) was 10.4 s⁻¹, the Km (Streptomyces [2]) was 9.8 mM and the k cat [3] was 17.8 s⁻¹. For the same compound, the Ratio [4] was 1060 and the Ratio [5] was 493.
For `CC(=O)NCCCC[C@H](NC(C)=O)C(=O)N[C@@H](C)C(=O)O[C@H](C)C(=O)O`, the k cat (Streptomyces [1]) was 65.9 s⁻¹, the Km (Streptomyces [2]) was 50.6 mM and the k cat [3] was 63 s⁻¹. For the same compound, the Ratio [4] was 1300 and the Ratio [5] was 2340.
`C[C@H](NC(=O)Cc1ccccc1)C(=O)N[C@H](C)C(=O)O` gave a k cat (Streptomyces [1]) of 2 s⁻¹, a Km (Streptomyces [2]) of 7 mM and a Ratio [4] of 286.
In the case of `C[C@@H](SC(=O)CNC(=O)Cc1ccccc1)C(=O)O`, the k cat (Streptomyces [1]) was 6.1 s⁻¹, the Km (Streptomyces [2]) was 0.63 mM and the k cat [3] was 22 s⁻¹. The Ratio [4] was 9660 and the Ratio [5] was 6670.
With `C[C@H](NC(=O)Cc1ccccc1)C(=O)O[C@H](C)C(=O)O` the k cat (Streptomyces [1]) was 24.6 s⁻¹, the Km (Streptomyces [2]) was 6.8 mM and the k cat [3] was 29 s⁻¹. It also gave a Ratio [4] of 3630 and a Ratio [5] of 1240.
In the case of `CC(=O)NCCCC[C@H](NC(C)=O)C(=O)N[C@@H](C)C(=O)N[C@H](C)C(=O)O`, the k cat (Streptomyces [1]) was 55 s⁻¹, the Km (Streptomyces [2]) was 10 mM and 7 mM and the Ratio [4] was 5500 and 7890.
Compound `CC(=O)NCCCC[C@H](NC(C)=O)C(=O)NCC(=O)N[C@H](C)C(=O)O` has a k cat (Streptomyces [1]) of 0.019 s⁻¹, a Km (Streptomyces [2]) of 15 mM and a Ratio [4] of 1.3.
Compound `C[C@@H](OC(=O)CNC(=O)Cc1ccccc1)C(=O)O` has a k cat (Streptomyces [1]) of 4.3 s⁻¹, a Km (Streptomyces [2]) of 11.8 mM and a k cat [3] of 27.3 s⁻¹. The Ratio [4] was 366 and the Ratio [5] was 3390.

— ChEMBL document CHEMBL1150988, “-lactam-recognizing enzymes exhibit different structural specificity in acyclic amide and ester substrates: a starting point in -lactamase evolution?” (Bioorg Med Chem Lett, 1994)
